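Assay format: 96-well plates, 48-hour exposure. Abbreviation: GI50, concentration required for 50% inhibition of growth. Definition used: TGI = concentration required for complete inhibition of growth.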
How the values were obtained:
Experiment in all cases: inhibition of tumour cell growth, NCI panel, 48 h
[1] = tested on: NCI-H522 lung
[2] = tested on: NCI-H226 lung
[3] = tested on: BT-549 breast
[4] = tested on: SK-MEL-5 melanoma
[5] = tested on: RXF 393 renal
[6] = tested on: MDA-MB-231 breast
[7] = tested on: KM12 colon
[8] = tested on: SNB-19 CNS
[9] = tested on: RPMI-8226 leukemia
[10] = tested on: T-47D breast
[11] = tested on: SF-295 CNS
[12] = tested on: CAKI-1 renal
[13] = tested on: HT29 colon
[14] = tested on: SK-MEL-2 melanoma
[15] = tested on: ACHN renal
[16] = tested on: MDA-MB-435
[17] = tested on: SK-MEL-28 melanoma
[18] = tested on: UO-31 renal
[19] = tested on: NCI-H460 lung
[20] = tested on: M14 melanoma
[21] = tested on: EKVX NSCLC
[22] = tested on: IGROV1 ovarian
[23] = tested on: SF-539 CNS
[24] = tested on: HS 578T breast
[25] = tested on: HOP-92 NSCLC
[26] = tested on: A549 NSCLC
[27] = tested on: MALME-3M melanoma
[28] = tested on: HCT-116 colon
[29] = tested on: CCRF-CEM leukemia
[30] = tested on: SR leukemia
[31] = tested on: 786-0 renal
[32] = tested on: SN12C renal
[33] = tested on: SF-268 CNS
[34] = tested on: OVCAR-5 ovarian
[35] = tested on: TK-10 renal
[36] = tested on: OVCAR-8 ovarian
[37] = tested on: SK-OV-3 ovarian
[38] = tested on: U251 CNS
[39] = tested on: HL-60(TB) leukemia
[40] = tested on: MCF7 breast
[41] = tested on: HOP-62 NSCLC
[42] = tested on: NCI/ADR-RES ovarian
[43] = tested on: UACC-62 melanoma
[44] = tested on: A498 renal
[45] = tested on: PC-3 prostate
[46] = tested on: DU-145 prostate
[47] = tested on: NCI-H23 lung
[48] = tested on: UACC-257 melanoma
[49] = tested on: HCT-15 colon
[50] = tested on: OVCAR-4 ovarian
[51] = tested on: SW-620 colon
[52] = tested on: COLO 205 colon
[53] = tested on: HCC-2998 colon
[54] = tested on: MOLT-4 leukemia
[55] = tested on: SNB-75 CNS
[56] = tested on: OVCAR-3 ovarian
[57] = tested on: MDA-N
[58] = tested on: LOX IMVI melanoma
[59] = tested on: K-562 leukemia

Q: Which results are given for `O=S(=O)(NCCNc1cc(-c2cn(-c3ccccc3)nc2-c2cccc(O)c2)ccn1)c1ccc(F)cc1`?
A: GI50 [1]: 1490 nM; TGI [1]: 3.79 µM; GI50 [2]: 3.06 µM; TGI [2]: 13.7 µM; GI50 [3]: 2030 nM; TGI [3]: 7.68 µM; GI50 [4]: 1730 nM; TGI [4]: 3.22 µM; GI50 [5]: 2090 nM; TGI [5]: 7.54 µM; GI50 [6]: 1880 nM; TGI [6]: 4.7 µM; GI50 [7]: 2340 nM; TGI [7]: 8.26 µM; GI50 [8]: 3.72 µM; TGI [8]: 31.7 µM; GI50 [9]: 2230 nM; TGI [9]: 6.12 µM; GI50 [10]: 2010 nM; TGI [10]: 6.86 µM; GI50 [11]: 1750 nM; TGI [11]: 3.9 µM; GI50 [12]: 3.89 µM; TGI [12]: > 100 µM; GI50 [13]: 1990 nM; TGI [13]: 4.79 µM; GI50 [14]: 1920 nM; TGI [14]: 4.32 µM; GI50 [15]: 2320 nM; TGI [15]: 7.34 µM; GI50 [16]: 2300 nM; TGI [16]: 7.2 µM; GI50 [17]: 2030 nM; TGI [17]: 5.39 µM; GI50 [18]: 2310 nM; TGI [18]: 7.88 µM; GI50 [19]: 3.12 µM; TGI [19]: 9.12 µM; GI50 [20]: 2270 nM; TGI [20]: 6.41 µM; GI50 [21]: 2590 nM; TGI [21]: 20.3 µM; GI50 [22]: 3.21 µM; TGI [22]: 19.8 µM; GI50 [23]: 1710 nM; TGI [23]: 3.95 µM; GI50 [24]: 2940 nM; TGI [24]: > 100 µM; GI50 [25]: 2030 nM; TGI [25]: 8.48 µM; GI50 [26]: 3.43 µM; TGI [26]: 12.1 µM; GI50 [27]: 1730 nM; TGI [27]: 3.88 µM; GI50 [28]: 2860 nM; TGI [28]: 10.4 µM; GI50 [29]: 3.28 µM; TGI [29]: 17.3 µM; GI50 [30]: 1600 nM; TGI [30]: 4.88 µM; GI50 [31]: 2490 nM; TGI [31]: 14.3 µM; GI50 [32]: 3.69 µM; TGI [32]: 35.1 µM; GI50 [33]: 2420 nM; TGI [33]: 8.93 µM; GI50 [34]: 1930 nM; TGI [34]: 5.69 µM; GI50 [35]: 3.58 µM; TGI [35]: 9.84 µM; GI50 [36]: 3.07 µM; TGI [36]: 14.1 µM; GI50 [37]: 2850 nM; TGI [37]: 12.3 µM; GI50 [38]: 2620 nM; TGI [38]: 7.85 µM; GI50 [39]: 2430 nM; TGI [39]: 6.22 µM; GI50 [40]: 2190 nM; TGI [40]: 6.66 µM; GI50 [41]: 1980 nM; TGI [41]: 5.44 µM; GI50 [42]: 2690 nM; GI50 [43]: 1990 nM; TGI [43]: 4.73 µM; GI50 [44]: 2690 nM; TGI [44]: 9.26 µM; GI50 [45]: 2290 nM; TGI [45]: 10.3 µM; GI50 [46]: 3.35 µM; TGI [46]: 16.8 µM; GI50 [47]: 2660 nM; TGI [47]: 10.8 µM; GI50 [48]: 2850 nM; TGI [48]: 7.14 µM; GI50 [49]: 1800 nM; TGI [49]: 5.75 µM; GI50 [50]: 3.05 µM; TGI [50]: > 100 µM; GI50 [51]: 3.52 µM; TGI [51]: 13.6 µM; GI50 [52]: 1910 nM; TGI [52]: 4.34 µM; GI50 [53]: 1980 nM; TGI [53]: 4.19 µM; GI50 [54]: 2230 nM; TGI [54]: 5.46 µM; GI50 [55]: 2830 nM; TGI [55]: 16.5 µM; GI50 [56]: 1980 nM; TGI [56]: 4.59 µM

Q: For `CSC1=N/C(=C\c2ccc(Cl)cc2)C(=O)N1CN1CCOCC1`, which TGI [1] is on record?
A: > 100 µM

Q: And the TGI [2]?
A: > 100 µM

Q: What about the TGI [4] of the same compound?
A: > 100 µM

Q: And the TGI [6]?
A: > 100 µM

Q: And the TGI [7]?
A: > 100 µM

Q: And the TGI [8]?
A: > 100 µM

Q: What about the TGI [9] of the same compound?
A: > 100 µM

Q: What about the TGI [57] of the same compound?
A: > 100 µM

Q: And the TGI [11]?
A: > 100 µM

Q: And the TGI [13]?
A: 94.4 µM

Q: What about the TGI [14] of the same compound?
A: > 100 µM

Q: And the TGI [15]?
A: > 100 µM

Q: And the TGI [16]?
A: > 100 µM

Q: What about the TGI [17] of the same compound?
A: > 100 µM

Q: What about the TGI [18] of the same compound?
A: > 100 µM

Q: And the TGI [20]?
A: > 100 µM

Q: What about the TGI [21] of the same compound?
A: > 100 µM

Q: And the TGI [22]?
A: > 100 µM

Q: What about the TGI [58] of the same compound?
A: > 100 µM

Q: And the TGI [24]?
A: > 100 µM

Q: And the TGI [25]?
A: 30.6 µM

Q: What about the TGI [26] of the same compound?
A: > 100 µM

Q: And the TGI [27]?
A: > 100 µM

Q: What about the TGI [28] of the same compound?
A: > 100 µM

Q: What about the TGI [29] of the same compound?
A: > 100 µM

Q: And the TGI [30]?
A: > 100 µM

Q: And the TGI [31]?
A: > 100 µM

Q: And the TGI [32]?
A: > 100 µM

Q: And the TGI [33]?
A: > 100 µM

Q: And the TGI [34]?
A: > 100 µM

Q: What about the TGI [35] of the same compound?
A: > 100 µM

Q: And the TGI [36]?
A: 61.6 µM

Q: And the TGI [37]?
A: > 100 µM

Q: And the TGI [59]?
A: > 100 µM

Q: What about the TGI [38] of the same compound?
A: > 100 µM

Q: And the TGI [40]?
A: > 100 µM

Q: What about the TGI [41] of the same compound?
A: > 100 µM

Q: And the TGI [42]?
A: > 100 µM

Q: What about the TGI [43] of the same compound?
A: > 100 µM

Q: What about the TGI [44] of the same compound?
A: > 100 µM

Q: And the TGI [45]?
A: > 100 µM

Q: What about the TGI [46] of the same compound?
A: > 100 µM

Q: What about the TGI [47] of the same compound?
A: > 100 µM

Q: What about the TGI [49] of the same compound?
A: > 100 µM

Q: What about the TGI [50] of the same compound?
A: 61.6 µM

Q: And the TGI [51]?
A: > 100 µM

Q: And the TGI [52]?
A: > 100 µM

Q: And the TGI [54]?
A: > 100 µM

Q: And the TGI [55]?
A: > 100 µM

Q: What about the TGI [56] of the same compound?
A: > 100 µM

Reference: PubChem BioAssay (NCI)
